Measurements published in patent US20090197843A1, “Treatment of Prevention of Unscheduled Bleeding in Women on Progestogen Containing Medication” (PANTARHEI BIOSCIENCE B.V., priority 2004, published 2009).

Experiments:
Type in all cases: in vivo
[1] = system: healthy postmenopausal women; experiment: Clinical study: continuous combined HRT (estradiol/drosperinone) with or without captopril; settings: 15 mg captopril with continuous combined HRT (1 mg estradiol, 2 mg drosperinone), three periods of 28 days; vs HRT preparation alone
Method: A clinical study is conducted in 50 healthy postmenopausal women, postmenopausal being defined as having had the last menstrual period at least 6 months before along with an increased FSH serum level. Two groups of 25 women who are not using any HRT are enrolled. All subjects receive a continuous combined HRT preparation containing 1 mg estradiol and 2 mg drosperinone for three periods of 28 days each. […] Subjects document any unscheduled vaginal bleeding (spotting, breakthrough bleeding) in a diary. Blood pressure is monitored intensively.

[2] = system: healthy women of childbearing age; experiment: Clinical study: low-dose oral contraceptive (30 μg ethinylestradiol/100 μg levonorgestrel) with or without enalapril; settings: 5 mg enalapril with oral contraceptive (30 μg ethinylestradiol, 100 μg levonorgestrel), 84 days; vs oral contraceptive alone
Method: A clinical study is conducted in 50 healthy women of childbearing age. Two groups of 25 women who are not using oral contraception, ‘pill starters’, are enrolled. All subjects receive a low-dose oral contraceptive containing 30 μg ethinylestradiol and 100 μg levonorgestrel for 84 days. Twenty-five (25) subjects are randomized to additionally receive 5 mg enalapril as an ACE-inhibitor with the oral contraceptive during the entire study period. All subjects document any unscheduled vaginal bleeding (spotting, breakthrough bleeding) in a diary. Blood pressure is monitored intensively.

[3] = system: healthy women of childbearing age; experiment: Clinical study: progestogen-only oral contraceptive (75 μg desogestrel) with or without irbesartan; settings: 50 mg irbesartan with progestogen-only oral contraceptive (75 μg desogestrel), 84 days; vs oral contraceptive alone
Method: (§1) A clinical study is conducted in 40 healthy women of childbearing age. Two groups of 20 women who are not using oral contraception, ‘pill starters’, are enrolled. All subjects receive a progestogen-only oral contraceptive containing 75 μg desogestrel for 84 days. Twenty (20) subjects are randomized to additionally receive 50 mg irbesartan as an angiotensin II-receptor antagonist concomitantly with the oral contraceptive during the entire study period. All subjects document any unscheduled vaginal bleeding (spotting, breakthrough bleeding) in a diary. Blood pressure is monitored intensively.

[4] = system: healthy women of childbearing age; experiment: Clinical study: contraceptive injections (150 mg medroxyprogesterone acetate) with or without irbesartan; settings: daily 75 mg irbesartan, 6 months, with two injections of 150 mg medroxyprogesterone acetate; vs contraceptive injection alone
Method: A clinical study is conducted in 40 healthy women of childbearing age. Two groups of 20 women are enrolled. All subjects receive two contraceptive injections containing 150 mg medroxyprogesterone acetate each with an interval of 3 months (13 weeks). Twenty (20) subjects are randomized to additionally receive daily 75 mg irbesartan as an angiotensin II-receptor antagonist during the entire study period of 6 months. All subjects document any unscheduled vaginal bleeding (spotting, breakthrough bleeding) in a diary. Blood pressure is monitored intensively.

[5] = system: healthy postmenopausal women; experiment: Clinical study: sequentially combined HRT (estradiol/dydrogesterone) with or without irbesartan; settings: 75 mg irbesartan with sequentially combined HRT (2 mg estradiol, 10 mg dydrogesterone), 3 cycles of 28 days; vs HRT preparation alone
Method: A clinical study is conducted in 40 healthy postmenopausal women, postmenopausal being defined as having had the last menstrual period at least 6 months before along with an increased FSH serum level. Two groups of 20 women who are not using any HRT are enrolled. All subjects receive a sequentially combined HRT preparation for 3 cycles of 28 days each. One cycle comprises 14 days of 2 mg estradiol only followed by 14 days of 2 mg estradiol for 14 days combined with 10 mg dydrogesterone. Twenty (20) subjects are randomized to additionally receive 75 mg irbesartan as an angiotensin II-receptor antagonist concomitantly with the HRT preparation during the entire study period. Subjects document any unscheduled vaginal bleeding (spotting, breakthrough bleeding) in a diary. Blood pressure is monitored intensively.

[6] = system: healthy women of childbearing age; experiment: Clinical study: low-dose oral contraceptive (20 μg ethinylestradiol/100 μg levonorgestrel) with or without irbesartan; settings: 75 mg irbesartan with oral contraceptive (20 μg ethinylestradiol, 100 μg levonorgestrel), 84 days; vs oral contraceptive alone
Method: as §1, with “low-dose” for “progestogen-only”, “20” for “75”, “ethinylestradiol and 100 μg levonorgestrel” for “desogestrel”, “75” for “50”

[7] = system: healthy postmenopausal women; experiment: Clinical study: continuous combined HRT (estradiol/norethisterone acetate) with or without irbesartan; settings: 50 mg irbesartan with continuous combined HRT (2 mg estradiol, 1 mg norethisterone acetate), 84 days; vs HRT preparation alone
Method: A clinical study is conducted in 40 healthy postmenopausal women, postmenopausal being defined as having had the last menstrual period at least 6 months before along with an increased FSH serum level. Two groups of 20 women who are not using any HRT are enrolled. All subjects receive a continuous combined HRT preparation containing 2 mg estradiol and 1 mg norethisterone acetate for 84 days. Twenty (20) subjects are randomized to additionally receive 50 mg irbesartan as an angiotensin II-receptor antagonist concomitantly with the HRT preparation during the entire study period. Subjects document any unscheduled vaginal bleeding (spotting, breakthrough bleeding) in a diary. Blood pressure is monitored intensively.

[8] = system: healthy women of childbearing age; experiment: Clinical study: contraceptive implant (68 mg etonogestrel) with or without irbesartan; settings: 75 mg irbesartan, 6 months, with implant containing 68 mg etonogestrel; vs contraceptive implant alone
Method: A clinical study is conducted in 40 healthy women of childbearing age. Two groups of 20 women are enrolled. All subjects receive an implant containing 68 mg etonogestrel. Twenty (20) subjects are randomized to additionally receive 75 mg irbesartan as an angiotensin II-receptor antagonist concomitantly with the contraceptive implant during the entire study period of 6 months. All subjects document any unscheduled vaginal bleeding (spotting, breakthrough bleeding) in a diary. Blood pressure is monitored intensively.

## C[C@H](CS)C(=O)N1CCC[C@H]1C(=O)O [captopril]
[1]
  Efficacy between groups: do not differ significantly
  episodes of unscheduled bleeding: fewer episodes of unscheduled bleeding
  overall safety profile: comparable to that of the group receiving the HRT preparation alone

## CCOC(=O)[C@H](CCc1ccccc1)N[C@@H](C)C(=O)N1CCC[C@H]1C(=O)O [enalapril]
[2]
  blood pressure pattern between groups: does not differ significantly
  episodes of unscheduled bleeding: fewer episodes of unscheduled bleeding
  intensity of blood loss: less intense blood loss, if any
  overall safety profile: comparable to that of the group receiving the oral contraceptive alone

## CCCCC1=NC2(CCCC2)C(=O)N1Cc1ccc(-c2ccccc2-c2nnn[nH]2)cc1 [irbesartan]
[3]
  blood pressure pattern between groups: does not differ significantly
  episodes of unscheduled bleeding: fewer episodes of unscheduled bleeding
  intensity of blood loss: less intense blood loss, if any
  overall safety profile: comparable to that of the group receiving the oral contraceptive alone
[4]
  blood pressure pattern between groups: does not differ significantly
  episodes of unscheduled bleeding: fewer episodes of unscheduled bleeding
  intensity of blood loss: less intense blood loss, if any
  overall safety profile: comparable to that of the group receiving the contraceptive injection alone
[5]
  Efficacy between groups: do not differ
  blood pressure pattern between groups: do not differ
  episodes of unscheduled bleeding: fewer episodes of unscheduled bleeding
  intensity of blood loss: less intense blood loss, if any
  overall safety profile: comparable to that of the group receiving the HRT preparation alone
[6]
  blood pressure pattern between groups: does not differ significantly
  episodes of unscheduled bleeding: fewer episodes of unscheduled bleeding
  intensity of blood loss: less intense blood loss, if any
  overall safety profile: comparable to that of the group receiving the oral contraceptive alone
[7]
  Efficacy between groups: do not differ significantly
  blood pressure pattern between groups: do not differ significantly
  episodes of unscheduled bleeding: fewer episodes of unscheduled bleeding
  intensity of blood loss: less intense blood loss, if any
  overall safety profile: comparable to that of the group receiving the HRT preparation alone
[8]
  blood pressure pattern between groups: does not differ significantly
  episodes of unscheduled bleeding: fewer episodes of unscheduled bleeding
  intensity of blood loss: less intense blood loss, if any
  overall safety profile: comparable to that of the group receiving the contraceptive implant alone
